In US4105651A (The United States of America as represented by the …, priority 1976, dated 1978):
Like-named read-outs stand apart in the source and are kept apart here.

Tested on: opiate receptor sites
Excerpt: The tests which were made in the laboratory were of the myenteric plexus-longitudinal muscle of the guinea pig ileum and the vas deferens of the mouse. In the whole animal the rates of onset and recovery are directly related to lipid solubility which facilitates drug movement to and from the brain.

Compound	agonist activity: inhibition of electrically evoked contractions (guinea pig ileum)	agonist activity: inhibition of electrically evoked contractions (mouse vas deferens)
CSCC[C@H](NC(=O)[C@H](Cc1ccccc1)NC(=O)CNC(=O)CNC(=O)[C@@H](N)Cc1ccc(O)cc1)C(=O)O [methionine-enkephalin, H-Tyr-Gly-Gly-Phe-Met-OH]	dose-related inhibition	dose-related inhibition
CC(C)C[C@H](NC(=O)[C@H](Cc1ccccc1)NC(=O)CNC(=O)CNC(=O)[C@@H](N)Cc1ccc(O)cc1)C(=O)O [leucine-enkephalin, H-Tyr-Gly-Gly-Phe-Leu-OH]	dose-related inhibition	dose-related inhibition
